# Assay results as given in publication PMC8709388, “In Search of Small Molecules That Selectively Inhibit MBOAT4” (Molecules, 2021).
# Like-named read-outs stand apart in the source and are kept apart here.
# Tests used:
# [1] = tested on: acyl ghrelin secretion from INS-1 cells (INS/GOAT/GHRL cell line); experiment: INS-1 cellular assay: secreted acyl-ghrelin from INS/GOAT/GHRL cell line measured with ELISA; assay type: cell-based, mouse; settings: for IC50: INS1, acyl-ghrelin secretion, read-out: in-house INS-1 IC50; for activity in cell culture (in words): acyl ghrelin secretion
# Text: Generation of Recombinant Retrovirus for mGOAT Expression. The mouse GOAT cDNA with C-terminal HA tag was amplified from pcDNA3.1-mouseGOAT-HA vector (gift from Brown and Goldstein lab) using the following primers: mGOAT_attb1 (forward primer) 5′-[…]—3′(attb1 recombination site is in italics, 5′ of mGOAT coding sequence is in bold, and Kozak coding sequence is underlined) and mGOAT_attb2 (reverse primer) 5′-[…] -3′ (attb2 recombination site is in italics, 3′ of mGAOT-HA coding sequence is in bold, and stop codon is underlined). The PCR product was cloned into donor vector pDONR221 (ThermoFisher) with BP clonase according to manufacturer’s instructions. Positive clones were verified by DNA sequencing with M13F and M13R primers. The resulting entry plasmid pDONR221-mGOAT-HA was used to transfer mGOAT-HA cDNA to destination vector pBabe-puro (Addgene cat# 51070 [35]) using LR clonase according to manufacturer’s instructions. Positive clones were verified by DNA sequencing with pBABE-5 and pBABE-3 primers. The resulting plasmid, pBabe-puro-mGOAT-HA, was used to generate retrovirus. The retrovirus was packed in 293T PhoE (Phoenix-ECO AT0CC® CRL-3214™) cells and used to infect INS-1 cells. The stable INS/GOAT cells were selecting on 1 μg/mL puromycin and GOAT expression was confirmed with immunoblot of membrane fraction isolated from antibiotic resistant culture using anti-HA antibody.
# Generation of Lentivirus for Expression of Ghrelin. The cDNA for mouse preproghrelin was subcloned from pcDNA3.1-preproghrelin (gift from Brown and Goldstein lab) into pULTRA vector (Addgene cat# 24129 [36]) with XbaI and BamHI restriction enzymes. Using of these restriction sites for cloning will result in the creation of bi-cistronic expression of ghrelin along with EGFP to facilitate identification of positive cells by fluorescence. The above restriction sites were engineered via PCR reaction using the following primers: ghrl_pultra_forw 5′-[…]-3′ (5′ of preproghrelin coding sequence is in bold; XbaI site is in italics) and ghrl_pultra_rev 5′-[…] -3′ (3′ of preproghrelin coding sequence is in bold, stop codon is underlined, and BamHI site is italics). The recombinant lentivirus encoding preproghrelin cDNA was packed in Lenti-X 293T cells (Takara cat# 632180) by co-transfection of pUltra-EGFP-mouse-preproghrelin, with packaging encoding plasmid pCMV ΔR8.2 (Addgene cat# 12263) and envelope encoding plasmid pCMV-VSV g (Addgene cat# 8454). The INS/GOAT cells were infected with recombinant lentivirus to generate INS/GOAT/GHRL cell line. After few passages, the population of cells with puromycin resistance and ~90% fluorescence was saved for cell-based assay.
# Cellular assay. INS/GOAT/GHRL cell line was routinely cultured in RPMI medium supplemented with 10% FBS, 1% Pen/Strep, 10 mM HEPES pH 7.2 and 50 μM 2-mercaptoethanol. Day 0: One 10 cm dish at full confluency was used to seed one 96-well plate. Day 1: Growth media was removed and cells were washed with PBS prior to adding fresh growth media as above but without 2-mercaptoethanol. The serial dilutions of tested compound at 50× concentration were prepared in vehicle containing growth media without 2-mercaptoethnol supplemented with 6% DMSO and were added to cells in duplicates. Day 2: 10 μL of growth media were removed from each well and amount of secreted acyl-ghrelin was measured with ELISA (Cayman cat# 10006307).
# GOAT = settings: read-out: lit. IC50, cited from earlier work
# ghrelin production = tested on: ghrelin production; design: method as in earlier work; settings: cited from earlier work
IC50 [1] [nM],Compound,IC50 (GOAT; Eli Lilly compound) [nM],adverse side effects (ghrelin production; at doses that inhibited ghrelin production),ghrelin production in vivo (ghrelin production),oral bioavailability (ghrelin production),IC50 (GOAT; Boehringer Ingelheim compound) [nM],activity in cell culture (in words) [1],potency of blocking ghrelin secretion from INS-1 cells relative to 5 [1] [fold]
670,Cc1nc(Cl)nc(N)c1CCC1CCN(C(=O)[C@H](C)NC(=O)c2ccnn2C)CC1 [compound 5],57,did not cause observable adverse side effects,inhibited ghrelin production in vivo,orally bioavailable,–,–,–
540,"CNC(=O)c1cccc(Cc2c(C)nc3nonc3c2N)n1 [compound 6, reference compound]",–,–,–,–,0.24,–,–
160,"Cc1nc2nonc2c(N)c1CCC1CCN(C(=O)[C@H](C)NC(=O)c2ccnn2C)CC1 [compound 11, (S)-N-(1-(4-(2-(7-amino-5-methyl-[1,2,5]oxadiazolo[3,4-b]pyridin-6-yl)ethyl)pip-eridin-1-yl)-1-oxopropan-2-yl)-1-methyl-1H-pyrazole-5-carboxamide]",–,–,–,–,–,most potent compound we have tested in our cellular assay,4

Compound,IC50 [1] [nM],IC50 (GOAT; Eli Lilly compound) [nM],adverse side effects (ghrelin production; at doses that inhibited ghrelin production),ghrelin production in vivo (ghrelin production),oral bioavailability (ghrelin production),IC50 (GOAT; Boehringer Ingelheim compound) [nM],activity in cell culture (in words) [1],potency of blocking ghrelin secretion from INS-1 cells relative to 5 [1] [fold]
"CCCCOCC(=O)N1CCC(CCc2c(C)nc3nonc3c2N)CC1 [compound 10, 1-(4-(2-(7-amino-5-methyl-[1,2,5]oxadiazolo[3,4-b]pyridin-6-yl)ethyl)piperidin-1-yl)-2-butoxyethan-1-one]",> 6600,–,–,–,–,–,much less active in cells,–
